Patent US10752584B2 (EMORY UNIVERSITY, priority 2016, dated 2020)

Tests used:
Type in all cases: cell-based
[1] = Cellular toxicity assay in human PBM cells; conditions: human, human PBM cells, read-out: Cytotoxicity
Procedure: (§1) The toxicity of the compounds was assessed in Vero, human PBM, CEM (human lymphoblastoid), MT-2, and HepG2 cells, as described previously (see Schinazi R. F., Sommadossi J.-P., Saalmann V., Cannon D. L., Xie M.-Y., Hart G. C., Smith G. A. & Hahn E. F. Antimicrob. Agents Chemother. 1990, 34, 1061-67). Cycloheximide was included as positive cytotoxic control, and untreated cells exposed to solvent were included as negative controls. The cytotoxicity IC50 was obtained from the concentration-response curve using the median effective method described previously (see Chou T.-C. & Talalay P. Adv. Enzyme Regul. 1984, 22, 27-55; Belen'kii M. S. & Schinazi R. F. Antiviral Res. 1994, 25, 1-11).

[2] = Cellular toxicity assay in CEM cells; conditions: human, CEM lymphoblastoid cells, read-out: Cytotoxicity
Procedure: as §1

[3] = Cellular toxicity assay in Vero cells; conditions: African green monkey, read-out: Cytotoxicity
Procedure: as §1

[4] = Cellular toxicity assay in HepG2 cells; conditions: human, read-out: Cytotoxicity
Procedure: as §1

wild type HBV = assay: Anti-HBV assay in AD-38 cell line; conditions: Hepatitis B virus, AD-38 cells, HBV in culture supernatant; for EC50: read-out: Anti-HBV activity EC50; for EC90: read-out: Anti-HBV activity EC90
Procedure: The anti-HBV activity of the compounds was determined by treating the AD-38 cell line carrying wild type HBV under the control of tetracycline (see Ladner S. K., Otto M. J., Barker C. S., Zaifert K., Wang G. H., Guo J. T., Seeger C. & King R. W. Antimicrob. Agents Chemother. 1997, 41, 1715-20). Removal of tetracycline from the medium [Tet (−)] results in the production of HBV. The levels of HBV in the culture supernatant fluids from cells treated with the compounds were compared with that of the untreated controls. Control cultures with tetracycline [Tet (+)] were also maintained to determine the basal levels of HBV expression. 3TC was included as positive control.
The median effective concentrations (EC50) ranges of several of the compounds described herein against HBV are shown in Table 3: […]

Compound | CC50 [1] [µM] | CC50 [2] [µM] | CC50 [3] [µM] | CC50 [4] [µM] | EC50 (wild type HBV) [µM] | EC90 (wild type HBV) [µM]
Cn1cc(NS(=O)(=O)c2ccccc2)cc1C(=O)Nc1ccc(F)c(F)c1 [Compound 36, N-(3,4-difluorophenyl)-1-methyl-4-(phenylsulfonamido)-1H-pyrrole-2-carboxamide] | 13.9 | 36.7 | 22.9 | 43.5 | 0.1 to 0.9 | 1 to 9
Cc1c(C(=O)C(=O)NCc2c[nH]nn2)c(C)n(C)c1C(=O)Nc1ccc(F)c(F)c1 [Compound 38, 4-(2-(((1H-1,2,3-triazol-4-yl)methyl)amino)-2-oxoacetyl)-N-(3,4-difluorophenyl)-1,3,5-trimethyl-1H-pyrrole-2-carboxamide] | > 100 | 29 | 45 | 85 | 0.001 to 0.009 | 0.1 to 0.9
Cc1c(C(=O)C(=O)Nc2ccccn2)c(C)n(C)c1C(=O)Nc1ccc(F)c(F)c1 [Compound 43, N-(3,4-difluorophenyl)-1,3,5-trimethyl-4-(2-oxo-2-(pyridin-2-ylamino)acetyl)-1H-pyrrole-2-carboxamide] | > 100 | 50 | > 100 | > 100 | 0.01 to 0.09 | 0.1 to 0.9
Cc1c(C(=O)C(=O)N2CCN(C)CC2)c(C)n(C)c1C(=O)Nc1ccc(F)c(F)c1 [Compound 44, N-(3,4-difluorophenyl)-1,3,5-trimethyl-4-(2-(4-methylpiperazin-1-yl)-2-oxoacetyl)-1H-pyrrole-2-carboxamide] | 92 | 17 | > 100 | 90 | 0.1 to 0.9 | 1 to 9
CCN(CC)C(=O)C(=O)c1c(C)c(C(=O)Nc2ccc(F)c(F)c2)n(C)c1C [Compound 45, 4-(2-(diethylamino)-2-oxoacetyl)-N-(3,4-difluorophenyl)-1,3,5-trimethyl-1H-pyrrole-2-carboxamide] | 90 | 36 | 47 | 75 | 0.1 to 0.9 | 1 to 9
Cc1c(C(=O)C(=O)Nc2nc3ccccc3[nH]2)c(C)n(C)c1C(=O)Nc1ccc(F)c(F)c1 [Compound 46, 4-(2-((1H-benzo[d]imidazol-2-yl)amino)-2-oxoacetyl)-N-(3,4-difluorophenyl)-1,3,5-trimethyl-1H-pyrrole-2-carboxamide] | > 100 | 38 | 10 | 7 | 0.1 to 0.9 | 1 to 9
Cc1c(C(=O)C(=O)NCc2ccccn2)c(C)n(C)c1C(=O)Nc1ccc(F)c(F)c1 [Compound 47, N-(3,4-difluorophenyl)-1,3,5-trimethyl-4-(2-oxo-2-((pyridin-2-ylmethyl)amino)acetyl)-1H-pyrrole-2-carboxamide] | > 100 | 47 | 51 | 35 | 0.01 to 0.09 | 0.1 to 0.9
Cc1c(C(=O)C(=O)NCc2nccn2C)c(C)n(C)c1C(=O)Nc1ccc(F)c(F)c1 [Compound 48, N-(3,4-difluorophenyl)-1,3,5-trimethyl-4-(2-(((1-methyl-1H-imidazol-2-yl)methyl)amino)-2-oxoacetyl)-1H-pyrrole-2-carboxamide] | > 100 | 27 | > 100 | 84 | 0.001 to 0.009 | 0.01 to 0.09
Cc1c(C(=O)C(=O)Nc2ccccn2)c(C)n(C)c1C(=O)Nc1ccccc1 [Compound 52, 1,3,5-trimethyl-4-(2-oxo-2-(pyridin-2-ylamino)acetyl)-N-phenyl-1H-pyrrole-2-carboxamide] | > 100 | 50 | > 100 | > 100 | 0.01 to 0.09 | 0.1 to 0.9
C#CCNC(=O)C(=O)c1c(C)c(C(=O)Nc2cccc(OC(F)(F)F)c2)n(C)c1C [Compound 55, 1,3,5-trimethyl-4-(2-oxo-2-(prop-2-yn-1-ylamino)acetyl)-N-(3-(trifluoromethoxy)phenyl)-1H-pyrrole-2-carboxamide] | > 100 | 38 | 15 | 88 | 0.1 to 0.9 | 1 to 9
C#CCNC(=O)C(=O)c1c(C)c(C(=O)NC(C)(C)c2ccc(F)c(F)c2)n(C)c1C [Compound 56, N-(2-(3,4-difluorophenyl)propan-2-yl)-1,3,5-trimethyl-4-(2-oxo-2-(prop-2-yn-1-ylamino)acetyl)-1H-pyrrole-2-carboxamide] | > 100 | > 100 | > 100 | > 100 | 1 to 9 | 
C#CCNC(=O)C(=O)c1c(C)c(C(=O)NC2(c3ccc(F)c(F)c3)CC2)n(C)c1C [Compound 57, N-(1-(3,4-difluorophenyl)cyclopropyl)-1,3,5-trimethyl-4-(2-oxo-2-(prop-2-yn-1-ylamino)acetyl)-1H-pyrrole-2-carboxamide] | > 100 | > 100 | > 100 | > 100 | 1 to 9 | 
C#CCNC(=O)C(=O)c1c(C)c(C(=O)Nc2ccccc2)n(C)c1C [Compound 58, 1,3,5-trimethyl-4-(2-oxo-2-(prop-2-yn-1-ylamino)acetyl)-N-phenyl-1H-pyrrole-2-carboxamide] | > 100 | > 100 | > 100 | > 100 | 0.01 to 0.09 | 0.1 to 0.9
C#CCNC(=O)C(=O)c1c(C)c(C(=O)Nc2ccc(S(F)(F)(F)(F)F)cc2)n(C)c1C [Compound 59, 1,3,5-trimethyl-4-(2-oxo-2-(prop-2-yn-1-ylamino)acetyl)-N-(4-(pentafluorosulfanyl)phenyl)-1H-pyrrole-2-carboxamide] | 44 | 3 | 12 | 43 | 1 to 9 | 
C#CCNC(=O)C(=O)c1c(C)c(C(=O)Nc2cccc(S(F)(F)(F)(F)F)c2)n(C)c1C [Compound 60, 1,3,5-trimethyl-4-(2-oxo-2-(prop-2-yn-1-ylamino)acetyl)-N-(3-(pentafluorosulfanyl)phenyl)-1H-pyrrole-2-carboxamide] | 86 | 23 | 82 | > 100 | 0.1 to 0.9 | 0.1 to 0.9
C#CCNC(=O)C(=O)c1c(C)c(C(=O)Nc2ccc(F)nc2)n(C)c1C [Compound 61, N-(6-fluoropyridin-3-yl)-1,3,5-trimethyl-4-(2-oxo-2-(prop-2-yn-1-ylamino)acetyl)-1H-pyrrole-2-carboxamide] | > 100 | > 100 | > 100 | > 100 | 0.1 to 0.9 | 0.1 to 0.9
C#CCNC(=O)C(=O)c1c(C)c(C(=O)Nc2cncnc2)n(C)c1C [Compound 62, 1,3,5-trimethyl-4-(2-oxo-2-(prop-2-yn-1-ylamino)acetyl)-N-(pyrimidin-5-yl)-1H-pyrrole-2-carboxamide] | > 100 | > 100 | > 100 | > 100 | 1 to 9 | 1 to 9
C#CCNC(=O)C(=O)c1c(C)c(C(=O)Nc2ccncc2)n(C)c1C [Compound 63, 1,3,5-trimethyl-4-(2-oxo-2-(prop-2-yn-1-ylamino)acetyl)-N-(pyridin-4-yl)-1H-pyrrole-2-carboxamide] | > 100 | > 100 | > 100 | > 100 | 0.1 to 0.9 | 1 to 9
C#CCNC(=O)C(=O)c1c(C)c(C(=O)Nc2ccc(F)c(C)c2)n(C)c1C [Compound 64, N-(4-fluoro-3-methylphenyl)-1,3,5-trimethyl-4-(2-oxo-2-(prop-2-yn-1-ylamino)acetyl)-1H-pyrrole-2-carboxamide] | > 100 | 18 | 96 | > 100 | 0.0001 to 0.0009 | 0.001 to 0.009
C#CCNC(=O)C(=O)c1c(C)c(C(=O)Nc2ccc(F)c(Cl)c2)n(C)c1C [Compound 66, N-(3-chloro-4-fluorophenyl)-1,3,5-trimethyl-4-(2-oxo-2-(prop-2-yn-1-ylamino)acetyl)-1H-pyrrole-2-carboxamide] | > 100 | 52 | 70 | 83 | 0.001 to 0.009 | 0.01 to 0.09
Cc1c(C(=O)C(=O)Nc2ccccc2)c(C)n(C)c1C(=O)Nc1ccc(F)c(F)c1 [Compound 69, N-(3,4-difluorophenyl)-1,3,5-trimethyl-4-(2-oxo-2-(phenylamino)acetyl)-1H-pyrrole-2-carboxamide] | > 100 | > 100 | 48 | 59 | 0.001 to 0.009 | 0.01 to 0.09
